Test results from patent US7741327B2 (Hoffmann-La Roche Inc., priority 2008, dated 2010).

target: T1, Recombinant human liver GK1 (GST-GK) (Homo sapiens, UniProt P35557); experiment: In vitro glucokinase activity (G6PDH-coupled NADH assay); assay type: biochemical; conditions: 30° C., 5 mM D-glucose, 10% DMSO
T1 construct: made in house; host or cells: E. coli
T1 sequence (P35557 1-466 isoform P35557-2): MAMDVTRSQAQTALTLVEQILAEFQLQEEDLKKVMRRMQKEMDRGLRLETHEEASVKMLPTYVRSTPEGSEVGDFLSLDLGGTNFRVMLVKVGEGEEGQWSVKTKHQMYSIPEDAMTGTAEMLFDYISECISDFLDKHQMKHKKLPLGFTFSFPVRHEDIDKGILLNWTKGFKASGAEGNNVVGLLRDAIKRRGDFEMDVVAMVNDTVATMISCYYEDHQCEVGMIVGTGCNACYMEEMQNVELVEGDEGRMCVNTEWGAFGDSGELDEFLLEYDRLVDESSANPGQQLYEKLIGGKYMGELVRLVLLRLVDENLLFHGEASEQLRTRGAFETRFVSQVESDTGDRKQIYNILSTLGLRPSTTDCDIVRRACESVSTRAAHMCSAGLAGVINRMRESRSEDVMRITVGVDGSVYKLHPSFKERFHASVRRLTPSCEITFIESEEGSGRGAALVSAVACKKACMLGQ
Experimental: Glucokinase In Vitro Assay Protocol: Glucokinase (GK) was assayed by coupling the production of glucose-6-phosphate to the generation of NADH with glucose-6-phosphate dehydrogenase (G6PDH, 0.75-1 kunits/mg; Boehringer Mannheim, Indianapolis, Ind.) from Leuconostoc mesenteroides as the coupling enzyme (Scheme 2).
Recombinant human liver GK1 was expressed in E. coli as a glutathione S-transferase fusion protein (GST-GK) [Liang et al, 1995] and was purified by chromatography over a glutathione-Sepharose 4B affinity column using the procedure provided by the manufacturer (Amersham Pharmacia Biotech, Piscataway, N.J.).
The assay was conducted at 30° C. in a flat bottom 96-well tissue culture plate from Costar (Cambridge, Mass.) with a final incubation volume of 120 μL. The incubation reaction contained the following: 25 mM Hepes buffer (pH 7.1), 25 mM KCl, 5 mM D-glucose, 1 mM ATP, 1.8 mM NAD, 2 mM MgCl2, 1 μM sorbitol-6-phosphate, 1 mM dithiothreitol, test drug or 10% dimethylsulfoxide, ˜7 units/ml G6PDH, and GK (see below). All organic reagents were >98% pure and were from Boehringer Mannheim with the exceptions of D-glucose and Hepes which were from Sigma Chemical Co, St Louis, Mo. Test compounds were dissolved in dimethylsulfoxide and were added to the incubation reaction minus GST-GK in a volume of 12 μL to yield a final dimethylsulfoxide concentration of 10%. This mix was pre-incubated in the temperature controlled chamber of a SPECTRAmax 250 microplate spectrophotometer (Molecular Devices Corporation, Sunnyvale, Calif.) for 10 min to allow temperature equilibrium and then the reaction was started by the addition of 20 μL GST-GK.
After addition of enzyme, the increase in optical density (OD) at 340 nm was monitored spectrophotometrically to determine the rate of change (OD340 per min). The GK activity (OD340/min) in control wells (10% DMSO minus GK activators) was compared with the activity in wells containing test GK activators, and the concentration of activator that produced a 50% increase in the activity of GK, i.e., the SC1.5, was calculated. The table below provides the in vitro glucokinase activity for the compounds in the Examples: […]

Compared with CC(C)C[C@@H](C(=O)Nc1ccn(C[C@@H]2COC(C)(C)O2)n1)N1CC(Oc2cccc(CC(C)(C)O)c2)=CC1=O [Example 237, (S)-2-{4-[3-(2-Hydroxy-2-methyl-propyl)-phenoxy]-2-oxo-2,5-dihydro-pyrrol-1-yl}-4-methyl-pentanoic acid [1-((R)-2,2-dimethyl-[1,3]dioxolan-4-ylmethyl)-1H-pyrazol-3-yl]-amide], CC[C@@H](C)CC(C(=O)Nc1ccn(C[C@@H]2COC(C)(C)O2)n1)N1CC(Oc2ccccc2Cl)=CC1=O (stereo partly drawn) [Example 252, (R)-2-[4-(2-Chloro-phenoxy)-2-oxo-2,5-dihydro-pyrrol-1-yl]-4-methyl-hexanoic acid [1-((R)-2,2-dimethyl-[1,3]dioxolan-4-ylmethyl)-1H-pyrazol-3-yl]-amide] is 10-fold lower in “SC1.5 (concentration of activator that produced a 50% increase in the activity of GK)” value: 1.969 µM for the first, 0.197 µM for the second.

Compared with CC(C)C[C@@H](C(=O)Nc1ccn(CC(N)=O)n1)N1CC(Oc2cccc(C3CC3)c2F)=CC1=O [Example 156, (S)-2-[4-(3-Cyclopropyl-2-fluoro-phenoxy)-2-oxo-2,5-dihydro-pyrrol-1-yl]-4-methyl-pentanoic acid (1-carbamoylmethyl-1H-pyrazol-3-yl)-amide], CC(C)C[C@@H](C(=O)Nc1ccn(C[C@@H](O)CO)n1)N1CC(Oc2cccc(C3CC3)c2F)=CC1=O [Example 147, (S)-2-[4-(3-Cyclopropyl-2-fluoro-phenoxy)-2-oxo-2,5-dihydro-pyrrol-1-yl]-4-methyl-pentanoic acid [1-((R)-2,3-dihydroxy-propyl)-1H-pyrazol-3-yl]-amide] is 3.9-fold lower in “SC1.5 (concentration of activator that produced a 50% increase in the activity of GK)” value: 0.406 µM for the first, 0.105 µM for the second.

First: CC(C)C[C@@H](C(=O)Nc1ccn(C[C@@H](O)CO)n1)N1CC(Oc2cccc(N3CCCC3)c2F)=CC1=O [Example 142, (S)-2-[4-(2-Fluoro-3-pyrrolidin-1-yl-phenoxy)-2-oxo-2,5-dihydro-pyrrol-1-yl]-4-methyl-pentanoic acid [1-((R)-2,3-dihydroxy-propyl)-1H-pyrazol-3-yl]-amide]
Second: CC(C)C[C@@H](C(=O)Nc1ccn(C[C@@H](O)CO)n1)N1CC(Oc2cccc3ccccc23)=CC1=O [Example 100, (S)-4-Methyl-2-[4-(naphthalen-1-yloxy)-2-oxo-2,5-dihydro-pyrrol-1-yl]-pentanoic acid [1-((R)-2,3-dihydroxy-propyl)-1H-pyrazol-3-yl]-amide]
The “SC1.5 (concentration of activator that produced a 50% increase in the activity of GK)” value of the first is 3.9-fold higher: 0.234 µM for the first, 0.06 µM for the second.

Compared with COC1=CC(=O)N([C@@H](CC2CCCC2)C(=O)Nc2ncc(F)s2)C1 [Example 8, (S)-3-Cyclopentyl-N-(5-fluoro-thiazol-2-yl)-2-(4-methoxy-2-oxo-2,5-dihydro-pyrrol-1-yl)-propionamide], COC1=CC(=O)N([C@@H](CC2CCCC2)C(=O)Nc2nc(C)ns2)C1 [Example 4] is 4.5-fold higher in “SC1.5 (concentration of activator that produced a 50% increase in the activity of GK)” value: 1.365 µM for the first, 6.186 µM for the second.

First: COc1cccc(OC2=CC(=O)N([C@@H](CC3CCCCC3)C(=O)Nc3ccn(CC(C)(C)O)n3)C2)c1Cl [Example 57, (S)-2-[4-(2-Chloro-3-methoxy-phenoxy)-2-oxo-2,5-dihydro-pyrrol-1-yl]-3-cyclohexyl-N-[1-(2-hydroxy-2-methyl-propyl)-1H-pyrazol-3-yl]-propionamide]
Second: CC(C)Oc1ccccc1OC1=CC(=O)N([C@@H](CC2CCCCC2)C(=O)Nc2ccn(CC(C)(C)O)n2)C1 [Example 195, (S)-3-cyclohexyl-N-[1-(2-hydroxy-2-methyl-propyl)-1H-pyrazol-3-yl]-2-[4-(2-isopropoxy-phenoxy)-2-oxo-2,5-dihydro-pyrrol-1yl]-propionamide]
The “SC1.5 (concentration of activator that produced a 50% increase in the activity of GK)” value of the first is 57-fold lower: 0.012 µM for the first, 0.681 µM for the second.

Going from CC(C)(O)Cn1ccc(NC(=O)[C@H](CC2CCCCC2)N2CC(Nc3ccc(Cl)c(Cl)c3)=CC2=O)n1 [Example 231, (S)-3-Cyclohexyl-2-[4-(3,4-dichloro-phenylamino)-2-oxo-2,5-dihydro-pyrrol-1-yl]-N-[1-(2-hydroxy-2-methyl-propyl)-1H-pyrazol-3-yl]-propionamide] to Cl.Cn1ccc(NC(=O)[C@H](CC2CCCCC2)N2CC(Oc3c(F)ccc(Cl)c3F)=CC2=O)n1 [Example 75, (S)-2-[4-(3-Chloro-2,6-difluoro-phenoxy)-2-oxo-2,5-dihydro-pyrrol-1-yl]-3-cyclohexyl-N-(1-methyl-1H-pyrazol-3-yl)-propionamide Hydrochloride], the “SC1.5 (concentration of activator that produced a 50% increase in the activity of GK)” value falls from 5.931 µM to 0.037 µM (160-fold).

COc1cccc(OC2=CC(=O)N(C(CC(C)(C)F)C(=O)Nc3ccn(C[C@@H](O)CO)n3)C2)c1Cl (stereo partly drawn) [Example 170, 2-[4-(2-Chloro-3-methoxyphenoxy)-2-oxo-2,5-dihydro-pyrrol-1-yl]-4-fluoro-4-methyl-pentanoic acid-[1-((R)-2,3-dihydroxy-propyl)-1H-pyrazol-3-yl]-amide] and CC(F)(F)C[C@@H](C(=O)Nc1ccn(C[C@@H](O)CO)n1)N1CC(Oc2ccccc2Cl)=CC1=O [Example 218, (S)-2-[4-(2-Chloro-phenoxy)-2-oxo-2,5-dihydro-pyrrol-1-yl]-4,4-difluoro-pentanoic acid [1-((R)-2,3-dihydroxy-propyl)-1H-pyrazol-3-yl]-amide] are within 1.5-fold of each other in “SC1.5 (concentration of activator that produced a 50% increase in the activity of GK)” value: 3.575 µM for the first, 4.538 µM for the second.

Compared with O=C(O)c1ccc(NC(=O)[C@H](CC2CCCCC2)N2CC(Oc3c(F)ccc(Cl)c3F)=CC2=O)nc1 [Example 74, 6-{(S)-2-[4-(3-Chloro-2,6-difluoro-phenoxy)-2-oxo-2,5-dihydro-pyrrol-1-yl]-3-cyclohexyl-propionylamino}-nicotinic acid], O=C(Nc1ccn(C[C@@H](O)CO)n1)C(CC1CCC1)N1CC(Oc2ccccc2Cl)=CC1=O (stereo partly drawn) [Example 169, 2-[4-(2-chloro-phenoxy)-2-oxo-2,5-dihydro-pyrrol-1-yl]-3-cyclobutyl-N-[1-((R)-2,3-dihydroxy-propyl)-1H-pyrazol-3-yl]-propionamide] is 1.6-fold higher in “SC1.5 (concentration of activator that produced a 50% increase in the activity of GK)” value: 0.055 µM for the first, 0.086 µM for the second.

First: C=Cc1cccc(OC2=CC(=O)N([C@@H](CC(C)C)C(=O)Nc3cnccn3)C2)c1F [Example 154, (S)-2-[4-(2-Fluoro-3-vinyl-phenoxy)-2-oxo-2,5-dihydro-pyrrol-1-yl]-4-methyl-pentanoic acid pyrazin-2-ylamide]
Second: CC(C)C[C@@H](C(=O)Nc1ccn(C[C@@H]2CNC(=O)O2)n1)N1CC(Oc2ccccc2Cl)=CC1=O [Example 172, (S)-2-[4-(2-chloro-phenoxy)-2-oxo-2,5-dihydro-pyrrol-1-yl]-4-methyl-pentanoic acid [1-((S)-2-oxo-oxazolidin-5-ylmethyl)-1H-pyrazol-3-yl]-amide]
The “SC1.5 (concentration of activator that produced a 50% increase in the activity of GK)” value of the first is 3.7-fold lower: 0.172 µM for the first, 0.628 µM for the second.

Compared with CC(C)(O)Cn1ccc(NC(=O)C(CC2C3CCC2CC3)N2CC(Oc3ccccc3Cl)=CC2=O)n1 (stereo not shown) [Example 229, 3-bicyclo[2.2.1]hept-7-yl-2-[4-(2-chloro-phenoxy)-2-oxo-2,5-dihydro-pyrrol-1-yl]-N-[1-(2-hydroxy-2-methyl-propyl)-1H-pyrazol-3-yl]-propionamide], CC[C@H](C)C[C@@H](C(=O)Nc1ccn(C[C@@H](O)CO)n1)N1CC(Oc2ccccc2Cl)=CC1=O (single isomer, unassigned) [Example 251] is 20-fold lower in “SC1.5 (concentration of activator that produced a 50% increase in the activity of GK)” value: 1.109 µM for the first, 0.056 µM for the second.

For CC(C)C[C@@H](C(=O)Nc1nc(N(C)C)ns1)N1CC(Oc2ccccc2Cl)=CC1=O [Example 108, (S)-2-[4-(2-Chloro-phenoxy)-2-oxo-2,5-dihydro-pyrrol-1-yl]-4-methyl-pentanoic acid (3-dimethylamino-[1,2,4]thiadiazol-5-yl)-amide], the “SC1.5 (concentration of activator that produced a 50% increase in the activity of GK)” value was greater than 30 µM.

same assay, conditions: at 30 μM test compound

For CC(C)C[C@@H](C(=O)Nc1nc(N(C)C)ns1)N1CC(Oc2ccccc2Cl)=CC1=O [Example 108, (S)-2-[4-(2-Chloro-phenoxy)-2-oxo-2,5-dihydro-pyrrol-1-yl]-4-methyl-pentanoic acid (3-dimethylamino-[1,2,4]thiadiazol-5-yl)-amide], the “fold act. @ 30 μM” value was 1.4 fold.
